From patent publication US8722649B2, “Alpha-chloro and alpha-bromo phosphonate analogs of lysophosphatidic acid and methods of making and using thereof” (University of Utah Research Foundation, priority 2007, dated 2014)

Test system: MDA-MB-231 cells
Assay: Orthotopic breast cancer xenograft
Type: in vivo, nude mice
Method: Orthotopic Human Breast Cancer Models. 4-week-old female athymic nude mice (Charles River Laboratories) were anesthetized by intraperitoneal injection of ketamine (80 mg/kg) and xylazine (10 mg/kg),according to the protocol approved by the University of Utah Institutional Animal Care and Use Committee (IACUC). Then the thoracic skin was sterilized with iodine and alcohol swabs.
MDA-MB-231 were trypsinized and resuspended in 2.5% CMHA-S and 3% gelatin-DTPH (v:v=1:1). Then, one volume of 4% PEGDA solution was added to four volumes of the cell suspension, and the resulting suspension was mixed gently by vortexing. The final cell concentration was 5×10^7 cells/ml. When the cell suspension was becoming viscous (ca. 3-5 min at 20° C.), 200 uL of gel was injected subcutaneously into the fourth mammary fat pad of each mouse, using a total of six mice per group.
The assessment of chemotherapy on breast cancer. The mice were randomly divided into 4 groups, including control (physiological saline), paclitaxel, LPA antagonist (19b), and paclitaxel followed by 19b. Six mice for each cell line were necessary to get statistically significant results according to literature. The control group received physiological saline i.p. injection twice per week starting at two weeks after the cell transplantation and ending at two weeks after the treatment. The treatment groups received i.p. administration of paclitaxel (10 mg/kg/day) or 19b (10 mg/kg/day) twice per week with the same period of control group. One additional group included 2 dose of paclitaxel followed by 2 dose of 19b with the same period of control group. The treatment was received […] twice per week for 2 weeks total.
The body weight and tumor size were measured twice per week, and general clinical status of the animals was also assessed every day. Perpendicular tumor diameters were measured using a vernier scale caliper and tumor volume estimated using the formula for ellipsoid: […] (mm^3)=[width(mm)^2×length(mm)]/2. Data are expressed as median tumor areas with interquartile ranges.
Animals were euthanized at 4 weeks postinjection or once any signs of broken skin caused by the extension of tumor are found. Tumors were excised with surrounding tissues for histological evaluation. Analysis of variance was used to analyze the statistical difference on tumor growth between different groups. The results are in FIG. 8, where it is shown that the volume of the tumors is the lowest when mice were treated with paclitaxel followed by the administration of 19b.
Xenograft establishment and chemotherapy. […] The tumor sizes were measured and calculated by formula: tumor size (mm^3)=[width (mm)]^2×[length (mm)]/2. […]

CC(=O)O[C@H]1C(=O)[C@@]2(C)[C@H]([C@H](OC(=O)c3ccccc3)[C@]3(O)C[C@H](OC(=O)[C@H](O)[C@@H](NC(=O)c4ccccc4)c4ccccc4)C(C)=C1C3(C)C)[C@]1(OC(C)=O)CO[C@@H]1C[C@@H]2O [Taxol, reference compound]
tumor blood vessel density / angiogenesis (CD31), single agent (10 mg/kg i.p.): statistically different from the control
tumor size, single agent (10 mg/kg i.p. twice per week for two weeks): reduction of tumor size
